From US12338237B2, “Derivatives having 1,2,3,4-tetrahydronaphthalene moiety or pharmaceutically acceptable salt thereof and pharmaceutical compositions comprising the same” (YUHAN CORPORATION, priority 2019, dated 2025)

Experiments:
GM1 production = assay: cells; type: cell-based; details: Homo sapiens, Jurkat, 72 h
[1] = biological target: glucosylceramide synthase (GCS) (Homo sapiens (Human), UniProt Q16739); assay: Evaluation of inhibitory activities against GCS (enzyme reaction with A549 cell lysate, NBD C6-ceramide, HPLC fluorescence); type: biochemical; details: GCS activity in A549 cell lysate, 37° C. for 90 minutes
Procedure, shortened: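 Lysate of A549 cells in 50 mM HEPES pH 7.3 incubated with test compound and NBD C6-ceramide at 37 °C for 90 min; lipids extracted with chloroform/methanol and GlcCer and ceramide peaks quantified by HPLC fluorescence. Activity from GlcCer area fraction, normalised between DMSO and ibiglustat controls.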

Sequence of glucosylceramide synthase (GCS) (Q16739 whole entry, looked up): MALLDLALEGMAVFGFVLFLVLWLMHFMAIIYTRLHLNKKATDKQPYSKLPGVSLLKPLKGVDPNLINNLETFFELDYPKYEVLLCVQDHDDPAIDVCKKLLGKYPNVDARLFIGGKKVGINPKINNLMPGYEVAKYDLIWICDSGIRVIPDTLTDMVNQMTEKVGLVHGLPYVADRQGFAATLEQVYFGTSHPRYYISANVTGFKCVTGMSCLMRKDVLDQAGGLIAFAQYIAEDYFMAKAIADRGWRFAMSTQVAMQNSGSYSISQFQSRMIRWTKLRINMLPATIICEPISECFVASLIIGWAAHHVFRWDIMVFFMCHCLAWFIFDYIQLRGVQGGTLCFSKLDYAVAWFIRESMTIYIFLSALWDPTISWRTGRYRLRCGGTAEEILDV

CCCOc1ccc(-c2ccc3c(c2)C(NC(=O)O[C@@H]2CN4CCC2CC4)CCC3)cc1 (stereo partly drawn) [Example 82, (S)-quinuclidin-3-yl (7-(4-propoxyphenyl)-1,2,3,4-tetrahydronaphthalen-1-yl)carbamate] showed an IC50 (GM1 production) of 14.4 nM and an IC50 [1] of 30.3 nM.

In the case of CCc1ccc(-c2ccc3c(c2)CCCC3NC(=O)O[C@@H]2CN3CCC2CC3)cc1 (stereo partly drawn) [Example 31, (S)-quinuclidin-3-yl (6-(4-ethylphenyl)-1,2,3,4-tetrahydronaphthalen-1-yl)carbamate], the IC50 (GM1 production) is reported as 2.92 nM and the IC50 [1] is reported as 6.58 nM.

COCCOc1cccc(-c2ccc3c(c2)CCC(C)(C)C3NC(=O)O[C@@H]2CN3CCC2CC3)c1 (stereo partly drawn) [Example 111, (S)-quinuclidin-3-yl (6-(3-(2-methoxyethoxy)phenyl)-2,2-dimethyl-1,2,3,4-tetrahydronaphthalen-1-yl)carbamate] gave an IC50 (GM1 production) of 1.84 nM and an IC50 [1] of 2.36 nM.

For O=C(NC1CCCc2cc(-c3cc(Cl)ccc3Cl)ccc21)O[C@@H]1CN2CCC1CC2 (stereo partly drawn) [Example 23, (S)-quinuclidin-3-yl (6-(2,5-dichlorophenyl)-1,2,3,4-tetrahydronaphthalen-1-yl)carbamate], the IC50 (GM1 production) was 27.7 nM and the IC50 [1] was 1.8 nM.

Cc1cc(-c2ccc3c(c2)CCCC3NC(=O)O[C@@H]2CN3CCC2CC3)ccn1 (stereo partly drawn) [Example 50, (S)-quinuclidin-3-yl (6-(2-methylpyridin-4-yl)-1,2,3,4-tetrahydronaphthalen-1-yl)carbamate] gave an IC50 (GM1 production) of 2190 nM and an IC50 [1] of 33.5 nM.

COCOc1ccc(-c2ccc3c(c2)CCC2(CC2)C3NC(=O)O[C@@H]2CN3CCC2CC3)cc1 (stereo partly drawn) [Example 197, (S)-quinuclidin-3-yl (6′-(4-(methoxymethoxy)phenyl)-3′,4′-dihydro-1′H-spiro[cyclopropane-1,2′-naphthalen]-1′-yl)carbamate] was tested, and the IC50 (GM1 production) was 2.8 nM and the IC50 [1] was 3.13 nM.

CC1(C)CCc2cc(-c3cc(F)cc(F)c3)ccc2C1NC(=O)O[C@@H]1CN2CCC1CC2 (stereo partly drawn) [Example 104, (S)-quinuclidin-3-yl (6-(3,5-difluorophenyl)-2,2-dimethyl-1,2,3,4-tetrahydronaphthalen-1-yl)carbamate] gave an IC50 (GM1 production) of 2.27 nM and an IC50 [1] of 2.25 nM.

Compound O=C(NC1CCCc2ccc(-c3ccc4c(c3)OCO4)cc21)O[C@@H]1CN2CCC1CC2 (stereo partly drawn) [Example 84, (S)-quinuclidin-3-yl (7-(benzo[d]dioxol-5-yl)-1,2,3,4-tetrahydronaphthalen-1-yl)carbamate] has an IC50 (GM1 production) of 144 nM and an IC50 [1] of 75.6 nM.

For COc1ccc(Cl)c(-c2ccc3c(c2)CCC(C)(C)C3NC(=O)O[C@@H]2CN3CCC2CC3)c1 (stereo partly drawn) [Example 125, (S)-quinuclidin-3-yl (6-(2-chloro-5-methoxyphenyl)-2,2-dimethyl-1,2,3,4-tetrahydronaphthalen-1-yl)carbamate], the IC50 (GM1 production) was 2.04 nM and the IC50 [1] was 1.1 nM.

For CC1(C)CCc2cc(-c3ccccc3OC(F)(F)F)ccc2C1NC(=O)O[C@@H]1CN2CCC1CC2 (stereo partly drawn) [Example 97, (S)-quinuclidin-3-yl (2,2-dimethyl-6-(2-(trifluoromethoxy)phenyl)-1,2,3,4-tetrahydronaphthalen-1-yl)carbamate], the IC50 (GM1 production) was 1.39 nM and the IC50 [1] was 0.86 nM.
